Measurements reported in patent US6531600B1, “Treatment and compounds” (Beecham Group p.l.c., priority 1989, dated 2003).

Key:
[1] = molecular target: c-AMP phosphodiesterase (erythrocytes); assay: Inhibition of cyclic AMP phosphodiesterase (erythrocyte extract, radiochemical procedure); assay type: biochemical; details: phosphodiesterase extracted from erythrocytes
Experimental: a) Inhibition of Cyclic AMP Phosphodiesterase
The phosphodiesterase was extracted by mixing the erythrocytes with 4 volumes of 7 mM phosphate buffer, pH7.4, followed by sonification (3×10 sec; 100 W) and then centrifuging for 30 min at 4200×g.
All supernatants were diluted in the extraction medium and assayed for phosphodiesterase activity within 6 hours of preparation, using the radiochemical procedure described in the above mentioned reference.

[2] = test system: Sephadex induced eosinophilia; assay: Sephadex induced blood eosinophilia in the rat; assay type: in vivo; details: n = 12 or more
Experimental: b) Induction of blood eosinophilia and the effects of drugs.
Male Charles River Sprague Dawley rats weight between 250 to 300 g were used.
The method used was a modification of that described by Laycock et al (Int. Arch. Appl. Immunol, (1986). 81, 363).
Sephadex G200, particle size 40 to 120 micron, was suspended in isotonic saline at 0.5 mg/ml, and stored for 48 h at 4° C. 1 ml of the suspension was given intravenously to rats on days 0,2 and 5. A control group received saline. The test compound was given before the Sephadex on each occasion, with a contact time expected to give maximum activity at the time of the Sephadex administration. Blood was taken from the tail vein of the rats on day 7 for the determination of total and differential leucocyte counts.
A control group of at least 6 animals was included each time a compound was evaluated. The control group received Sephadex and the vehicle without test compound. The results in the drug treated animals were compared with the control group. Alternatively, if the mean for the control group for any experiment was not statistically different from the mean of the sum of all of the controls groups, then the treated animal results for that experiment were compared with the mean of the sum of all the control groups.
Total and differential leucocyte counts
20 μl samples of blood, taken from the tail vein of the rats, were added to 10 ml of Isoton II and, within 30 min, Zaponin (3 drops) was added, to lyse the erythrocytes. Five minutes later the total cell count was determined using a Coulter Counter Model DN. Differential leucocyte counts were carried out by fixing and staining a blood smear on a microscopic slide with May-Grunwald and Giemsa stains. A minimum of 400 cells were counted on each slide.
Probability values were calculated using the Student's t test.
The effect of the test compound upon Sephadex induced eosinophilia in the rat is set out in Table 3. The test compound was given orally 30 minutes before each injection of Sephadex.

[3] = 25.0 mg/kg orally 30 mins before each Sephadex i.v. injection

| Compound | melting point | Ki [1] | further results |
| --- | --- | --- | --- |
| CCCCn1c(=O)c2[nH]c(N)nc2n(CCCC)c1=O [Example 8, 1,3-Di-n-butyl-8-amino xanthine] | 89 °C |  |  |
| Nc1nc2c([nH]1)c(=O)n(C1CC1)c(=O)n2C1CC1 [Example 13, 1,3-Di-cyclopropyl-8-amino xanthine] |  | 14 µM |  |
| Nc1nc2c([nH]1)c(=O)n(CC1CCCC1)c(=O)n2CC1CCCC1 [Example 11] | 300 °C | 0.57 µM |  |
| O=c1c2[nH]c([N+](=O)[O-])nc2n(CC2CCCC2)c(=O)n1CC1CCCC1 [Example 4] | 148 to 150 °C | 4.8 µM |  |
| O=c1c2[nH]c([N+](=O)[O-])nc2n(CC2CC2)c(=O)n1CC1CC1 [Example 2, 1,3-Di-cyclopropylmethyl-8-nitro xanthine] |  | 15.9 µM |  |
| O=c1c2[nH]c([N+](=O)[O-])nc2n(CC2CCC2)c(=O)n1CC1CCC1 [Example 3] | 220 °C | 6.1 µM |  |
| CCCCn1c(=O)c2[nH]c(N)nc2n(CCCC)c1=O.Cl [Example 7, 1,3-Di-n-butyl-8-amino xanthine hydrochloride] |  | 1.3 µM | % of Control Mean ± SEM (blood eosinophilia) [2, 3]: 91 ± 6 % of Control |
| CCCCn1c(=O)c2[nH]c([N+](=O)[O-])nc2n(CCCC)c1=O [Example 1, 1,3-Di-n-butyl-8-nitro xanthine] |  | 17 µM | % of Control Mean ± SEM (blood eosinophilia) [2, 3]: 109 ± 6 % of Control |
| O=c1c2[nH]c([N+](=O)[O-])nc2n(CC2CCCCC2)c(=O)n1CC1CCCCC1 [Example 5] | 140 °C | 5.4 µM |  |
| Nc1nc2c([nH]1)c(=O)n(CC1CC1)c(=O)n2CC1CC1 [Example 9, 1,3-Di-cyclopropylmethyl-8-amino xanthine] |  | 1.6 µM | % of Control Mean ± SEM (blood eosinophilia) ([2]; 0.2 mg/kg orally 30 mins before each Sephadex i.v. injection): 61 ± 8 % of Control; % of Control Mean ± SEM (blood eosinophilia) ([2]; 2.0 mg/kg orally 30 mins before each Sephadex i.v. injection): 48 ± 7 % of Control |
| Nc1nc2c([nH]1)c(=O)n(CC1CCC1)c(=O)n2CC1CCC1 [Example 10] | 124 °C (dec.) | 0.53 µM | % of Control Mean ± SEM (blood eosinophilia) ([2]; 5.0 mg/kg orally 30 mins before each Sephadex i.v. injection): 47 ± 4 % of Control |

Continued, in another order:

| melting point | Ki [1] | Compound | further results |
| --- | --- | --- | --- |
|  | 7.9 µM | O=c1c2[nH]c(Br)nc2n(CC2CCCCC2)c(=O)n1CC1CCCCC1 [Example 25, 1,3-Di-cyclohexylmethyl-8-bromo xanthine] |  |
|  | 55.9 µM | 1,3-Di-cyclopropylmethyl-8-piperidinyl xanthine [Example 23] |  |
|  | 29.7 µM | 1,3-Di-cyclopropylmethyl-8-pyrrolidinyl xanthine [Example 22] |  |
|  | 15.1 µM | O=c1c2[nH]c(Cl)nc2n(CC2CC2)c(=O)n1CC1CC1 [Example 17, 1,3-Di-cyclopropylmethyl-8-chloro xanthine] |  |
|  | < 100 µM | CCCCn1c(=O)c2[nH]c(N3CCCCC3)nc2n(CCCC)c1=O [Example 19, 1,3-Di-n-butyl-8-piperidino xanthine] |  |
|  | 11.5 µM | O=c1c2[nH]c(N3CCOCC3)nc2n(CC2CC2)c(=O)n1CC1CC1 [Example 20, 1,3-Di-cyclopropylmethyl-8-morpholino xanthine] |  |
|  | 23 µM | O=c1c2[nH]c(Cl)nc2n(C2CCCCC2)c(=O)n1C1CCCCC1 [Example 18, 1,3-Di-cyclohexyl-8-chloro xanthine] |  |
